One test is described as follows: cells. The following applies: Homo sapiens, DLD-1, 240 h.
Test [1] concerns the target T1, helicase domain of the Pol θ protein (Homo sapiens, UniProt O75417).
T1 construct: The helicase domain of the Pol θ protein was purified from insect protein expression system; made in house; host or cells: insect protein expression system
The test is described as follows: Biochemical Activity Assay (ADP Glo Assay) of Pol θ inhibitor, ATPase activity.

The mark [2] stands for this setting: read-out: Cell viability assay IC50 (nM), CTG assay, CellTiter Glo, read on Day 10, cell line not given.
Setting [3] is: ADP-Glo assay, ATPase activity of Pol θ helicase domain, ssDNA substrate, read-out: Biochemical assay IC50.
Where [4] appears, read: read-out: Cell viability assay IC50 (nM).

Like-named read-outs stand apart in the source and are kept apart here.

T1 sequence (O75417 102-554 limits assumed): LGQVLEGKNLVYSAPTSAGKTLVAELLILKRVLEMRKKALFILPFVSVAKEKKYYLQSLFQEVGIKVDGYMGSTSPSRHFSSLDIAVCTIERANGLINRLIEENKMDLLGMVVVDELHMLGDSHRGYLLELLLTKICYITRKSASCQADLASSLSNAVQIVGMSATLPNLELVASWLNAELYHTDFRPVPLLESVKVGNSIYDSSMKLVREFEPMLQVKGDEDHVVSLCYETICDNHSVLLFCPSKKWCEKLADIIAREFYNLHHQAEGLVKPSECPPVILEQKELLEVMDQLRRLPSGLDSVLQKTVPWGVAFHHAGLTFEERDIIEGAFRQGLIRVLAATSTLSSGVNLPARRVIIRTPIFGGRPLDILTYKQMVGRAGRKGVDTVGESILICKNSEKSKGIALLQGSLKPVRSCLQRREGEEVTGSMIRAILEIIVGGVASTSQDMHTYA

`COc1cnc(Cl)cc1-c1cc(C)ncc1C(=O)Nc1nc2ncc(N3CCC(C(C)(C)O)CC3)nc2s1` [Example 134]: the IC50 (as a rule, the concentration needed to halve the response being measured) turned out to be 5.41 nM in the test “cells” (setting [2]) and 4.11 nM in test [1] (setting [3]).
As for `COc1cnc(Cl)cc1-c1cc(C)ncc1C(=O)Nc1nc2ccc(N3CC[C@@H](O)C[C@H]3C)nc2s1` [Example 135], the results for the IC50 (in “cells” (setting [2]); in test [1] (setting [3])) were 19.2 nM and 5.41 nM, respectively.
With `COc1cnc(Cl)cc1-c1cc(C)ncc1C(=O)Nc1nc2ccc(N3CC[C@H](O)C[C@H]3C)nc2s1` [Example 136], the IC50 in “cells” (setting [2]) worked out at 121 nM; in test [1] (setting [3]) it was 25.8 nM.
On to `COc1cnc(Cl)cc1-c1cc(C)ncc1C(=O)Nc1nc2ccc(N3CCn4cncc4C3)nc2s1` [Example 137], for which the IC50 in the test “cells” (setting [2]) stood at 171 nM; in test [1] (setting [3]), 25.1 nM.
As to `COc1cnc(Cl)cc1-c1cc(C)ncc1C(=O)Nc1nc2ccc(N3CCC=CC3=O)nc2s1` [Example 138], the IC50 is 26.1 nM in the test “cells” (setting [2]) and 7.58 nM in test [1] (setting [3]).
The matching figures for `COc1cnc(Cl)cc1-c1cc(C)ncc1C(=O)Nc1nc2ccc(N3CCn4ccnc4C3)nc2s1` [Example 139]: 121 nM and 19.1 nM.
As for `COc1cnc(Cl)cc1-c1cc(C)ncc1C(=O)Nc1nc2cnc(N3CC[C@@H](O)C[C@@H]3C)nc2s1` [Example 140], the values for the IC50 (in the test “cells” (setting [2]); in test [1] (setting [3])) were 68.1 nM and 15.8 nM, respectively.
Turning to `COc1cnc(Cl)cc1-c1cc(C)ncc1C(=O)Nc1nc2cnc(N3CC[C@@H](O)C[C@H]3C)nc2s1` [Example 141], the 50% inhibitory concentration (IC50) is 21.5 nM in the test “cells” (setting [2]) and 8.23 nM in test [1] (setting [3]).
The corresponding values for `COc1cnc(Cl)cc1-c1cc(C)ncc1C(=O)Nc1nc2cnc(N3CC4(CC(O)C4)C3)nc2s1` [Example 142] are 104 nM and 4.49 nM.
`COc1cnc(Cl)c(F)c1-c1cc(C)ncc1C(=O)Nc1nc2cc(F)c(N3CCC(F)(F)CC3)nc2s1` [Example 143]: the IC50 in the test “cells” (setting [2]) worked out at 43 nM; in test [1] (setting [3]), 23.6 nM.
On to `COc1cnc(Cl)cc1-c1cc(C)ncc1C(=O)Nc1nc2ncc(CN3CCC(O)CC3)cc2s1` [Example 144], for which the results for the IC50 (in the test “cells” (setting [2]); in test [1] (setting [3])) were 2220 nM and 36.7 nM, respectively.
On to `COc1cnc(Cl)cc1-c1cc(C)ncc1C(=O)Nc1nc2ccc(-c3c(C)nnn3C)nc2s1` [Example 147, 2'-chloro-N-(5-(1,4-dimethyl-1H-1,2,3-triazol-5-yl)thiazolo[5,4-b]pyridin-2-yl)-5'-methoxy-6-methyl-[4,4'-bipyridine]-3-carboxamide], for which the results for the half-maximal inhibitory concentration (IC50) (in the test “cells” (setting [2]); in test [1] (setting [3])) were 82.5 nM and 17.6 nM, respectively.
Consider `COc1cnc(Cl)cc1-c1cc(C)ncc1C(=O)Nc1nc2ccc(-c3c(C)cnn3C)cc2s1` [Example 148], for which the IC50 in the test “cells” (setting [2]) was 4.13 nM; in test [1] (setting [3]) it was 4.93 nM.
The corresponding values for `[2H]C([2H])([2H])n1ncc(C)c1-c1cc2sc(NC(=O)c3cnc(C)cc3-c3cc(Cl)ncc3OC)nc2cn1` [Example 149] are 3.54 nM and 2.29 nM.
As to `COc1cnc(Cl)cc1-c1cc(C)ncc1C(=O)Nc1nc2cnc(-c3c(C)nn(C)c3C#N)cc2s1` [Example 150], the results for the IC50 (in “cells” (setting [2]); in test [1] (setting [3])) were 21.5 nM and 5.58 nM, respectively.
The matching figures for `COc1cnc(Cl)cc1-c1cc(C)ncc1C(=O)Nc1nc2ccc(-c3c(C)cnn3C)c(F)c2s1` [Example 151]: 3.98 nM and 8.57 nM.
As to `COc1cnc(Cl)cc1-c1cc(C)ncc1C(=O)Nc1nc2cnc(-c3c(C)nn(C)c3C(N)=O)cc2s1` [Example 152], the results for the IC50 (in “cells” (setting [2]); in test [1] (setting [3])) were 17.2 nM and 3.02 nM, respectively.
For `COc1cc(P(C)(C)=O)ccc1-c1cc(C)ncc1C(=O)Nc1nc2cnc(-c3c(C)cnn3C)cc2s1` [Example 153], the IC50 amounted to 545 nM in “cells” (setting [2]) and 24.4 nM in test [1] (setting [3]).
Take `COc1cnc(Cl)cc1-c1cc(C)ncc1C(=O)Nc1nc2cnc(-c3c(F)cnn3C)cc2s1` [Example 154]: the IC50 worked out at 17.8 nM in the test “cells” (setting [2]) and 2.36 nM in test [1] (setting [3]).
The corresponding values for `[2H]C([2H])([2H])Oc1cnc(Cl)cc1-c1cc(C)ncc1C(=O)Nc1nc2cnc(-c3c(C)cnn3C)cc2s1` [Example 156] are 5.62 nM and 2.75 nM.
The matching figures for `COc1cnc(Cl)cc1-c1cc(C)ncc1C(=O)Nc1nc2cnc(-c3c(C)cnn3C)nc2s1` [Example 157]: 32.9 nM and 5.08 nM.
`COc1cnc(Cl)cc1-c1cc(C)ncc1C(=O)Nc1nc2cnc(-c3c(C)nn4ccccc34)cc2s1` [Example 158]: the IC50 in the test “cells” (setting [2]) came out at 4.64 nM; in test [1] (setting [3]), 6.31 nM.
Turning to `COc1cnc(Cl)cc1-c1cc(C)ncc1C(=O)Nc1nc2nnc(-c3c(C)cnn3C)cc2s1` [Example 159], the IC50 in the test “cells” (setting [2]) stood at 1170 nM; in test [1] (setting [3]), 2.75 nM.
Take `COc1cnc(Cl)cc1-c1cc(C)ncc1C(=O)Nc1nc2ncc(-c3c(C)cnn3C)nc2s1` [Example 160]: the IC50 in the test “cells” (setting [2]) came out at 82.5 nM; in test [1] (setting [3]), 5.75 nM.
The corresponding values for `COc1cnc(Cl)cc1-c1cc(C)ncc1C(=O)Nc1nc2cnc(-c3[nH]ncc3C)cc2s1` [Example 161] are 121 nM and 3.41 nM.
In the case of `COC(=O)c1cc(-c2c(C)cnn2C)cc2sc(NC(=O)c3cnc(C)cc3-c3cc(Cl)ncc3OC)nc12` [Example 162], the IC50 in “cells” (setting [2]) was 233 nM; in test [1] (setting [3]) it was 63.1 nM.
`COc1cnc(Cl)cc1-c1cc(C)ncc1C(=O)Nc1nc2cnc(-c3c(C)nn(C)c3C)cc2s1` [Example 163]: the concentration for half-maximal inhibition (IC50) was found to be 3.41 nM in the test “cells” (setting [2]) and 2.51 nM in test [1] (setting [3]).
The corresponding values for `COc1cnc(Cl)cc1-c1cc(C)ncc1C(=O)Nc1nc2c(C(N)=O)cc(-c3c(C)cnn3C)cc2s1` [Example 165] are 446 nM and 16.9 nM.
In the case of `COc1cnc(Cl)cc1-c1cc(C)ncc1C(=O)Nc1nc2c(C#N)cc(-c3c(C)cnn3C)cc2s1` [Example 166], the IC50 in the test “cells” (setting [2]) is 68.1 nM; in test [1] (setting [3]), 25.1 nM.
As to `COc1cnc(Cl)cc1-c1cc(C)ncc1C(=O)Nc1nc2cnc(-c3c(Cl)cnn3C)cc2s1` [Example 167], the IC50 in the test “cells” (setting [2]) amounted to 5.41 nM; in test [1] (setting [3]), 3.74 nM.
In the case of `COc1cnc(Cl)cc1-c1cc(C)ncc1C(=O)Nc1nc2cnc(-c3c(C#N)cnn3C)cc2s1` [Example 169], the IC50 in “cells” (setting [2]) amounted to 89.1 nM; in test [1] (setting [3]), 8.84 nM.
Regarding `COc1cnc(Cl)cc1-c1cc(C)ncc1C(=O)Nc1nc2c(CO)cc(-c3c(C)cnn3C)cc2s1` [Example 170], the IC50 in “cells” (setting [2]) is 825 nM; in test [1] (setting [3]), 7.13 nM.
As to `COc1cnc(Cl)cc1-c1cc(C)ncc1C(=O)Nc1nc2cnc(-c3cncn3C)cc2s1` [Example 171], the IC50 was 13.1 nM in the test “cells” (setting [2]) and 4.93 nM in test [1] (setting [3]).
As to `[2H]C([2H])([2H])c1cnn(C)c1-c1cc2sc(NC(=O)c3cnc(C)cc3-c3cc(Cl)ncc3OC)nc2cn1` [Example 176, 2'-chloro-5'-methoxy-6-methyl-N-(6-(1-methyl-4-(methyl-d3)-1H-pyrazol-5-yl)thiazolo [4,5-c]pyridin-2-yl)-[4,4'-bipyridine]-3-carboxamide], the IC50 in the test “cells” (setting [2]) was 4.29 nM; in test [1] (setting [3]), 4.64 nM.
For the molecule `COc1cnc(Cl)cc1-c1cc(C)ncc1C(=O)Nc1nc2nc(OC)c(-c3c(C)cnn3C)cc2s1` [Example 177, 2'-chloro-N-(6-(1,4-dimethyl-1H-parazol-5-yl)-5-methoxythiazolo[4,5-b]pyridin-2-yl)-5' -methoxy-6-methyl-[4,4'-bipyridine]-3-carboxamide], the IC50 is 121 nM in the test “cells” (setting [4]) and 13.6 nM in test [1] (Biochemical assay IC50 (nM)).
The matching figures for `COc1cnc(Cl)cc1-c1cc(C)ncc1C(=O)Nc1nc2[nH]c(=O)c(-c3c(C)cnn3C)cc2s1` [Example 178, 2'-chloro-N-(6-(1,4-dimethyl-1H-parazol-5-yl)-5-oxo-4,5-dihydrothiazolo[4,5-b]pyridin-2-yl)-5'-methoxvy-6-methyl-[4,4'-bipyridine]-3-carboxamide]: 35.5 nM and 1.63 nM.
As for `COc1cnc(Cl)cc1-c1cc(C)ncc1C(=O)Nc1nc2c(=O)[nH]c(-c3c(C)cnn3C)cc2s1` [Example 179, 2'-chloro-N-(6-(1,4-dimethyl-1H-parazol-5-yl)-4-oxo-4,5-dihydrothiazolo[4,5-c]pyridin-2-yl)-5'-methoxy-6-methyl-[4,4'-bipyridine]-3-carboxamide], the IC50 came to 562 nM in “cells” (setting [4]) and 2.43 nM in test [1] (Biochemical assay IC50 (nM)).
For the molecule `COc1cnc(Cl)cc1-c1cc(C)ncc1C(=O)Nc1nc2ncc(C3COCCO3)cc2s1` (centres unmarked) [Example 182, N-(6-(1,4-dioxan-2-yl)thiazolo[4,5-b]pyridin-2-yl)-2'-chloro-5'-methoxy-6-methyl-[4,4'-bipyridine]-3-carboxamide], the IC50 amounted to 39.8 nM in “cells” (setting [2]) and 2.08 nM in test [1] (setting [3]).
In the case of `COc1cnc(Cl)cc1-c1cc(C)ncc1C(=O)Nc1nc2nnc(C3=CCC(O)CC3)cc2s1` (centres unmarked) [Example 183, 2'-chloro-N-(3-(4-hydroxycyclohexyl-1-en-1-yl)thiazolo[4,5-c]pyridazin-6-yl)-5'-methox y-6-methyl-[4,4'-bipyridine]-3-carboxamide], the results for the IC50 (in the test “cells” (setting [4]); in test [1] (Biochemical assay IC50 (nM))) were 1260 nM and 3.41 nM, respectively.
As for `COc1cnc(Cl)cc1-c1cc(C)ncc1C(=O)Nc1nc2ncc(C3=CCC4(CC3)CN(C(C)=O)C4)cc2s1` [Example 184], the IC50 is 482 nM in the test “cells” (setting [2]) and 15.2 nM in test [1] (setting [3]).
In the case of `COc1cnc(Cl)cc1-c1cc(C)ncc1C(=O)Nc1nc2cnc(C3=CCC4(CC3)CN(C(C)=O)C4)cc2s1` [Example 185], the IC50 in “cells” (setting [2]) was found to be 35.9 nM; in test [1] (setting [3]), 8.94 nM.
As to `CCP(=O)(CC)c1ccc(-c2cnc3nc(NC(=O)c4cnc(C)cc4-c4cc(Cl)ncc4OC)sc3c2)cc1` [Example 186], the IC50 in the test “cells” (setting [4]) was 1520 nM; in test [1] (Biochemical assay IC50 (nM)) it was 5.58 nM.
The matching figures for `CCP(=O)(CC)c1ccc(-c2ccc3nc(NC(=O)c4cnc(C)cc4-c4cc(Cl)ncc4OC)sc3c2)cc1` [Example 187]: 271 nM and 8.75 nM.

Source of the values: patent publication EP4585599A1, “NITROGEN-CONTAINING FUSED RING COMPOUND, INTERMEDIATE THEREOF, PREPARATION METHOD THEREFOR AND USE THEREOF” (Hangzhou Synrx Therapeutics Biomedical Technology Co., Ltd., priority 2022, dated 2024).
